Results as given in PMC12094199 (Science Advances, 2025).

How the values were obtained:
Cell survival assay = format: cell-based; settings: human, HEK-293 cells
U87MG cells = assay: Cell survival assay; format: cell-based; settings: Homo sapiens, U-87 MG, 48 h, read-out: IC50 (cytotoxicity)

`CC(=O)O[C@H]1C(=O)[C@@]2(C)[C@H]([C@H](OC(=O)c3ccccc3)[C@]3(O)C[C@H](OC(=O)[C@H](O)[C@@H](NC(=O)c4ccccc4)c4ccccc4)C(C)=C1C3(C)C)[C@]1(OC(C)=O)CO[C@@H]1C[C@@H]2O` [PTX, paclitaxel] showed an IC50 at 48 h (Cell survival assay) of 27.8 ± 3.3 nM and an IC50 (U87MG cells) of 218 ± 54.2 nM.
